Results from US8415376B2, “Inhibitors of PI3 kinase” (Amgen Inc., priority 2008, dated 2013).

Columns and labels:
[1] = molecular target: T1, PI3Kβ (Homo sapiens, UniProt P42338); experiment: In vitro PI3 kinase enzyme assay (PI3K ATP loss), beta; format: biochemical; conditions: average if run more than once
T1 construct: Full length p110 subunits of PI3K α, β and δ, N-terminally labeled with polyHis tag; polyHis (N); made in house; host or cells: Sf9 insect cells (baculovirus)

[2] = system: phosphorylation of Akt at Ser473; experiment: Cell-based phospho-Akt Ser473 assay (HCT116 cell); conditions: HCT 116 human colon carcinoma cells, IGF-1 stimulated; average
Excerpt: Cell-Based Phospho-Akt Ser473 Assay (HCT116 Cell)
This assay determines the ability of a compound to inhibit the phosphorylation of […] in Akt using a MSD based sandwich immunoassay (Meso Scale Detection, Meso Scale Discovery (MSD), Gaithersburg, Md.). HCT 116 human colon carcinoma cell lines can be grown in McCoy's 5A growth medium (GIBCO, Carlsbad, Calif.) containing 10% FBS (GIBCO, Carlsbad, Calif.) and X1 Penicillin-streptomycin-glutamine (GIBCO, Carlsbad, Calif.). Prior to the assay, cells can be detached from the culture flask with trypsin, and re-suspended in complete media to give a final concentration of 1.6×10^5 cells per mL. Aliquots (100 μl) of the HCT116 cell suspension can be seeded into each well of a 96 well tissue culture plate to give a final density of 16,000 cells per well. Cells can then be incubated overnight at 37° C.
The following day the cells can be treated with serially diluted test compounds and incubated for 2 hours at 37° C. The culture media on the HCT 116 cells can be replaced with 189 μL McCoys media, supplemented with 0.1% BSA (ICN Biomedicals, Inc., Costa Mesa, Calif.). Compounds can be prepared as either 10 mM or 0.5 mM stock solutions in DMSO, and serially diluted 3 fold in a 10-point dose-response curve to give final concentrations that are 200-fold greater than the desired final test concentration. Aliquots (1 μL) of serially-diluted compounds can be transferred to 96 well tissue culture plates containing the HCT 116 cells. […] As a maximum response control, wells can contain 0.5% DMSO in place of compound. The plates can be mixed at 700 rpm for 2 min to ensure even distribution of the test compound and incubated for 2 hours at 37° C. Cells can then be stimulated with insulin-like growth factor 1 (Sigma, St Louis, Mo.) at final concentration of 100 ng/ml for 15 minutes at 37° C. The media can then be removed and the cells treated with 80 μL cell-lysis buffer (MSD) containing a cocktail of protease and phosphatase inhibitors for one hour at 4° C.
25 μL Cell lysate can then be transferred to pre-blocked MSD assay plates pre-coated with a capture antibody specific for Akt, and the plates can be incubated for 2 hours at room temperature. The cell lysates can then be removed and plates can then be washed four times with 200 μl per well of Tris wash buffer (500 mM Tris, PH 7.5, 1.5 M NaCl, 0.2% Tween-20). Subsequently cells can be incubated for 1 hour at room temperature with a 25 μL solution containing the detection antibody, anti-phospho Akt (Ser 473) labeled with an electrochemiluminescent compound (Meso Scale Discovery SULPHO-TAG™ label, MSD, Gaithersburg, Md.). The detection antibody can be removed and plates can then be washed four times with 200 μL per well of Tris wash buffer. An aliquot of 150 μL of diluted MSD read buffer can then be applied to each well, and the electrochemiluminescent signal can be measured using a MSD SECTOR™ plate reader (Meso Scale Discovery, Gaithersburg, Md.). This instrument measures the intensity of emitted light to determine a quantitative measure of phosphorylated Akt in each well. The dose-response data obtained with each compound can be analyzed and the IC50 inhibition of Akt phosphorylation at Ser473 can be calculated.
Activity data for the compounds tested in the PI3K cell based Akt assay is provided in Table 1 under the column heading HCT116 Cell.

[3] = molecular target: T2, PI3Kα (Homo sapiens, UniProt P42336); experiment: In vitro PI3 kinase enzyme assay (PI3K ATP loss), alpha; format: biochemical; conditions: average if run more than once; read-out: ATP Loss (PBKα) IC50 μM (Avg)
T2 construct: Full length p110 subunits of PI3K α, β and δ, N-terminally labeled with polyHis tag; polyHis (N); made in house; host or cells: Sf9 insect cells (baculovirus)
T2 sequence (P42336 whole entry): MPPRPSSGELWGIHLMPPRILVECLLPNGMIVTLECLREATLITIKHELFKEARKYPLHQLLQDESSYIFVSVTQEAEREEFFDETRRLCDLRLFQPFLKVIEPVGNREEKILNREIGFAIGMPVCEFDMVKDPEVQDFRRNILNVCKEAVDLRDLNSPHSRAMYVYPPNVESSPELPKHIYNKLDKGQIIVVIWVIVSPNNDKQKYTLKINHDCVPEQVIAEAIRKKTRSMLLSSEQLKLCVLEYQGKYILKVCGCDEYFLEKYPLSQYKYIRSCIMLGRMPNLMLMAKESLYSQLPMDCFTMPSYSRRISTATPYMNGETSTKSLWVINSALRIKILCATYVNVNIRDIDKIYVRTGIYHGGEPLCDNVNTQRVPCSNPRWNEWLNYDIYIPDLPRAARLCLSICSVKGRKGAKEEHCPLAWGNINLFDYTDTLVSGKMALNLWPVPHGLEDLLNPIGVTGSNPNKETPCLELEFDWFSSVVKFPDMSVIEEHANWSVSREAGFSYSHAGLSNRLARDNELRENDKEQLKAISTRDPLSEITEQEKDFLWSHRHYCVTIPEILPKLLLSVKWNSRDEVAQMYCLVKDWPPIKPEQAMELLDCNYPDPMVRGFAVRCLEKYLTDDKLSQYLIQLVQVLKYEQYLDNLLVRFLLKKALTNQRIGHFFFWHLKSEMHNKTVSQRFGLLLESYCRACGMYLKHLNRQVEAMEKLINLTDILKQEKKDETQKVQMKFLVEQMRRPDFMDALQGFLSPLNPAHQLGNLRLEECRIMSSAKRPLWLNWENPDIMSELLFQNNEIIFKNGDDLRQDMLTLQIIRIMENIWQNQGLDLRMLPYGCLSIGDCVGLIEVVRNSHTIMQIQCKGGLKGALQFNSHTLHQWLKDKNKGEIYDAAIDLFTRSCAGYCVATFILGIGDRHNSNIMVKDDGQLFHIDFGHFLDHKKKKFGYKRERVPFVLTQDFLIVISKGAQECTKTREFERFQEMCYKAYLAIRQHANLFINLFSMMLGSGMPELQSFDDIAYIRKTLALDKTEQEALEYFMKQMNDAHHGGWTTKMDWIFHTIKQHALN
T2 sequence (P27986 whole entry partner): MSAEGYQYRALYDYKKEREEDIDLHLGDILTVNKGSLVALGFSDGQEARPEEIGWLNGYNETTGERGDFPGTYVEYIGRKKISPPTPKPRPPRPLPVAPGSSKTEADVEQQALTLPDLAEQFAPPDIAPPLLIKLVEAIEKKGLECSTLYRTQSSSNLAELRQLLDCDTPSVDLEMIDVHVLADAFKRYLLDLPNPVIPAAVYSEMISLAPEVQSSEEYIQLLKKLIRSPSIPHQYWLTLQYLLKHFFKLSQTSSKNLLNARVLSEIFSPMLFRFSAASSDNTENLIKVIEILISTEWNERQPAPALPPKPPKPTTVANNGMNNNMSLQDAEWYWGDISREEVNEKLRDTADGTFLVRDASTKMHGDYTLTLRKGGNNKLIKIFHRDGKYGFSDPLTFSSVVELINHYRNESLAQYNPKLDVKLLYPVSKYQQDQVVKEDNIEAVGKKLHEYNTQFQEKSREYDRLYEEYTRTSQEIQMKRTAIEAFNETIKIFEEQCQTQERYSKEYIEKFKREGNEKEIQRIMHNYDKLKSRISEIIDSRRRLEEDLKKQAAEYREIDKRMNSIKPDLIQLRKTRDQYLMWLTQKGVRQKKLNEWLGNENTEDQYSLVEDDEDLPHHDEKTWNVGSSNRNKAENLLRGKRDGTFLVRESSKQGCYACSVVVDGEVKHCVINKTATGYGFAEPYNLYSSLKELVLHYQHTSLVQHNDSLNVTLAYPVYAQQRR
Procedure: Full length p110 subunits of PI3K α, β and δ, N-terminally labeled with polyHis tag, can be co-expressed with p85 with Baculo virus expression vectors in sf9 insect cells. P110/p85 heterodimers can be purified by sequential Ni-NTA, Q-HP, Superdex-100 chromatography. Purified α, β and δ isozymes can be stored at −20° C. in 20 mM Tris, pH 8, 0.2M NaCl, 50% glycerol, 5 mM DTT, 2 mM Na cholate. […] The γ isozyme can be purified by sequential Ni-NTA, Superdex-200, Q-HP chromatography. The γ isozyme can be stored frozen at −80° C. in NaH2PO4, pH 8, 0.2M NaCl, 1% ethylene glycol, 2 mM β-mercaptoethanol.
In Vitro PI3 Kinase Enzyme Assays (PI3K Atploss)
PI3K enzyme assays (alpha, beta, delta and gamma) can be performed in 25 μL with the above final concentrations of components in white polyproplyene plates. Phosphatidyl inositol phosphoacceptor, PtdIns(4,5)P2 (eg. P4508) can be obtained from Echelon Biosciences, Salt Lake City, Utah. […] Test compounds can be dissolved in DMSO and diluted with three-fold serial dilutions. The compound in DMSO (1 μL) may be added per test well, and the inhibition relative to reactions containing no compound, with and without enzyme can be determined After assay incubation at RT, the reaction can be stopped and residual ATP can be determined by addition of an equal volume of a commercial ATP bioluminescence kit (Perkin Elmer EasyLite, Perkin Elmer, Waltham, Mass.) according to the manufacturer's instructions, and detected using an Analyst GT luminometer.

T1 sequence (P42338 whole entry): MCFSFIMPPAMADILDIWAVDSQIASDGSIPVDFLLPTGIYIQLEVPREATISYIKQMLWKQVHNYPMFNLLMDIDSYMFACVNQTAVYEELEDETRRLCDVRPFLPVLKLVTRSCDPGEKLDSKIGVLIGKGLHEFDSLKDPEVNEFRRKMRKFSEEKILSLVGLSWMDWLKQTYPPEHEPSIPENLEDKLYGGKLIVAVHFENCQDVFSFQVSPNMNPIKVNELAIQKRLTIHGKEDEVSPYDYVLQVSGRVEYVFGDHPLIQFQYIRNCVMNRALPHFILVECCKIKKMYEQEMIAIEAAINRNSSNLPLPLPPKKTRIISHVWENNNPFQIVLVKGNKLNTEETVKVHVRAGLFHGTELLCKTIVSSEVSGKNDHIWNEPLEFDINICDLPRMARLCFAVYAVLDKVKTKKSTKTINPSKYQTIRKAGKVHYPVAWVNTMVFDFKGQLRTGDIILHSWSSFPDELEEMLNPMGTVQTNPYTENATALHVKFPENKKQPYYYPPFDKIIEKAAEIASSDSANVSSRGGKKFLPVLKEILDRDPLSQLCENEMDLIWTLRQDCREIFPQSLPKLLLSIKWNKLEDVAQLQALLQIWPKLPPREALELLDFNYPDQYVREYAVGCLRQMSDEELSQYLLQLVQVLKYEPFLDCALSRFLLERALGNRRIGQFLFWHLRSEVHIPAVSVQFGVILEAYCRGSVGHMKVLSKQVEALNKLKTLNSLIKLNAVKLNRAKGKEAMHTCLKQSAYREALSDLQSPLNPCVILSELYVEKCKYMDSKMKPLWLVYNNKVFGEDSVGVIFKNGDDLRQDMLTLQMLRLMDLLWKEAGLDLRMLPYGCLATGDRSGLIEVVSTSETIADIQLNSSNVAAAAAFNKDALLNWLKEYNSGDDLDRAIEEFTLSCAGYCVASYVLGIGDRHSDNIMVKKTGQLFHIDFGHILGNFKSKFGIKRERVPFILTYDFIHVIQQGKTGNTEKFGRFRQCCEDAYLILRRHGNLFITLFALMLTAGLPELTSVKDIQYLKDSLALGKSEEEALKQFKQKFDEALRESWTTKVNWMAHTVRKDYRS
T1 sequence (P27986 whole entry partner): as the sequence (P27986 whole entry partner) above

| SMILES | IC50 [1] | IC50 [2] | IC50 [3] |
| --- | --- | --- | --- |
| CC(C)(C)OC(=O)NCCOc1ccnc2ccc(-c3cnc(Cl)c(NS(=O)(=O)c4ccc(F)cc4)c3)cc12 [Example 3, tert-butyl(2-((6-(6-chloro-5-(((4-fluorophenyl)sulfonyl)amino)-3-pyridinyl)-4-quinolinyl)oxy)ethyl)carbamate] | 0.682 µM | 1.66 µM | 0.0678 µM |
| COc1cnc2ccc(-c3cnc(Cl)c(NS(=O)(=O)c4ccc(F)cc4)c3)cc2c1 [Example 4, N-(2-chloro-5-(3-methoxy-6-quinolinyl)-3-pyridinyl)-4-fluorobenzenesulfonamide] | 0.0253 µM | 0.186 µM | 0.0162 µM |
| CS(=O)(=O)Nc1cc(-c2ccc3nccc(Oc4ccccc4)c3c2)cnc1Cl [Example 5, N-(2-chloro-5-(4-phenoxy-6-quinolinyl)-3-pyridinyl)methanesulfonamide] | 0.105 µM | 1.14 µM | 0.255 µM |
| O=S(=O)(Nc1cc(-c2ccc3ncccc3c2)cnc1Cl)c1ccc(F)cc1 [Example 7, N-(2-chloro-5-(6-quinolinyl)-3-pyridinyl)-4-fluorobenzenesulfonamide] | 0.0277 µM | 1.3 µM | 0.0099 µM |
| COc1ccnc2ccc(-c3cnc(Cl)c(NS(=O)(=O)c4ccc(F)cc4)c3)cc12 [Example 8, N-(2-chloro-5-(4-methoxy-6-quinolinyl)-3-pyridinyl)-4-fluorobenzenesulfonamide] | 0.0147 µM | 0.222 µM | 0.0127 µM |
| CS(=O)(=O)Nc1cc(-c2ccc3nccc(Cl)c3c2)cnc1Cl [Example 9, N-(2-chloro-5-(4-chloro-6-quinolinyl)-3-pyridinyl)methanesulfonamide] | 0.052 µM | 2.06 µM | 0.0142 µM |
| COc1cnc2ccc(-c3cnc(Cl)c(NS(C)(=O)=O)c3)cc2c1 [Example 10, N-(2-chloro-5-(3-methoxy-6-quinolinyl)-3-pyridinyl)methanesulfonamide] | 0.166 µM | 0.348 µM | 0.0424 µM |
| CS(=O)(=O)Nc1cc(-c2ccc3nccc(N4CCOCC4)c3c2)cnc1Cl [Example 11, N-(2-chloro-5-(4-(4-morpholinyl)-6-quinolinyl)-3-pyridinyl)methanesulfonamide] | 0.156 µM | 0.0501 µM | 0.0458 µM |
| CS(=O)(=O)Nc1cc(-c2ccc3ncccc3c2)cnc1Cl [Example 12, N-(2-chloro-5-(6-quinolinyl)-3-pyridinyl)methanesulfonamide] | 0.365 µM | 2.65 µM | 0.0689 µM |
| CN(C)c1cc(-c2ccc3ncccc3c2)cnc1Cl [Example 13, 2-chloro-N,N-dimethyl-5-(6-quinolinyl)-3-pyridinamine] |  |  | 1.12 µM |
| OCc1cc(-c2ccc3nccc(N4CCOCC4)c3c2)cnc1Cl [Example 14, (2-chloro-5-(4-(4-morpholinyl)-6-quinolinyl)-3-pyridinyl)methanol] | 5.42 µM |  | 1.13 µM |
| CC(=O)OCc1cc(-c2ccc3nccc(N4CCOCC4)c3c2)cnc1Cl [Example 15, (2-chloro-5-(4-(4-morpholinyl)-6-quinolinyl)-3-pyridinyl)methyl acetate] | 3.67 µM |  | 1.39 µM |
| NCc1cc(-c2ccc3nccc(N4CCOCC4)c3c2)cnc1Cl [Example 16, 1-(2-chloro-5-(4-(4-morpholinyl)-6-quinolinyl)-3-pyridinyl)methanamine] | 26.7 µM |  | 3.53 µM |
| CC(C)(C)C(=O)NCc1cc(-c2ccc3nccc(N4CCOCC4)c3c2)cnc1Cl [Example 17, N-((2-chloro-5-(4-(4-morpholinyl)-6-quinolinyl)-3-pyridinyl)methyl)-2,2-dimethylpropanamide] | 27.4 µM |  | 3.11 µM |
| O=S(=O)(Nc1cc(-c2ccc3cccnc3c2)cnc1Cl)c1ccc(F)cc1 [Example 18, N-(2-chloro-5-(7-quinolinyl)-3-pyridinyl)-4-fluorobenzenesulfonamide] | 7.7 µM |  | 1.97 µM |
| Oc1cc(-c2ccc3nccc(N4CCOCC4)c3c2)cnc1Cl [Example 19, 2-chloro-5-(4-(4-morpholinyl)-6-quinolinyl)-3-pyridinol] | 0.644 µM | 0.311 µM | 0.0258 µM |
| CC(C)N1CCN(c2cnc3ccc(-c4cnc(Cl)c(NS(=O)(=O)c5ccc(F)cc5)c4)cc3n2)CC1 [Example 21, N-(2-chloro-5-(3-(4-(1-methylethyl)-1-piperazinyl)-6-quinoxalinyl)-3-pyridinyl)-4-fluorobenzenesulfonamide] |  | 0.0115 µM | 0.0054 µM |
| O=S(=O)(Nc1cc(-c2ccc3ncc(O)cc3c2)cnc1Cl)c1ccc(F)cc1 [Example 22, N-(2-chloro-5-(3-hydroxy-6-quinolinyl)-3-pyridinyl)-4-fluorobenzenesulfonamide] | 0.0552 µM | 0.654 µM | 0.0114 µM |
| O=S(=O)(Nc1cc(-c2ccc3nccc(N4CCN(Cc5ccccc5)CC4)c3c2)cnc1Cl)c1ccc(F)cc1 [Example 28, N-(5-(4-(4-benzyl-1-piperazinyl)-6-quinolinyl)-2-chloro-3-pyridinyl)-4-fluorobenzenesulfonamide] | 0.0339 µM |  | 0.0062 µM |
| O=S(=O)(Nc1cc(-c2ccc3nnccc3c2)cnc1Cl)c1ccc(F)cc1 [Example 37, N-(2-chloro-5-(6-cinnolinyl)-3-pyridinyl)-4-fluorobenzenesulfonamide] | 0.212 µM |  | 0.0783 µM |
| O=S(=O)(Nc1cc(-c2cccc3cnncc23)cnc1Cl)c1ccc(F)cc1 [Example 39, N-(2-chloro-5-(5-phthalazinyl)-3-pyridinyl)-4-fluorobenzenesulfonamide] | 4.12 µM |  | 1.9 µM |
| O=S(=O)(Nc1cc(-c2ccc3cnncc3c2)cnc1Cl)c1ccc(F)cc1 [Example 40, N-(2-chloro-5-(6-phthalazinyl)-3-pyridinyl)-4-fluorobenzenesulfonamide] | 0.698 µM |  | 0.899 µM |
| O=S(=O)(Nc1cc(-c2cnc3ncccc3c2)cnc1Cl)c1ccc(F)cc1 [Example 44, N-(2-chloro-5-(1,8-naphthyridin-3-yl)-3-pyridinyl)-4-fluorobenzenesulfonamide] | 5.61 µM |  | 2.84 µM |
| CNc1ccc2cc(-c3cnc(Cl)c(NS(=O)(=O)c4ccc(OC)cc4)c3)ccc2n1 [Example 48, N-(2-chloro-5-(2-(methylamino)-6-quinolinyl)-3-pyridinyl)-4-methoxybenzenesulfonamide] | 2.49 µM |  | 0.0954 µM |
| CN(C)c1cc(-c2ccc3nccc(N4CCOCC4)c3c2)cnc1Cl [Example 51, 2-chloro-N,N-dimethyl-5-(4-(4-morpholinyl)-6-quinolinyl)-3-pyridinamine] | 2.46 µM |  | 0.179 µM |
| CN(C)c1cc(-c2ccc3nccc(Cl)c3c2)cnc1Cl [Example 52, 2-chloro-5-(4-chloro-6-quinolinyl)-N,N-dimethyl-3-pyridinamine] | 2.24 µM |  | 0.43 µM |
| CC(c1ccccc1)N1CCN(c2ccnc3ccc(-c4cnc(Cl)c(N(C)C)c4)cc23)CC1 (stereo not shown) [Example 53, 2-chloro-N,N-dimethyl-5-(4-(4-(1-phenylethyl)-1-piperazinyl)-6-quinolinyl)-3-pyridinamine] | 4.22 µM |  | 0.294 µM |
